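Cells were grown in 96-well plates and exposed to each compound for 48 hours at five concentrations; endpoints were interpolated linearly between bracketing concentrations, or set to the highest concentration if not reached. GI50 = concentration required for 50% inhibition of growth.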 The source made the active and inactive calls. Rule as the data show it: active = GI50 up to about 1.1 µM and inactive = higher.
Columns and labels:
Assay in all cases: inhibition of tumour cell growth, NCI panel, 48 h
UACC-62 = system: UACC-62
SK-OV-3 = system: SK-OV-3
COLO 205 = system: COLO 205
MDA-MB-231 = system: MDA-MB-231
ACHN = system: ACHN
NCI/ADR-RES = system: NCI/ADR-RES
OVCAR-5 = system: OVCAR-5
MOLT-4 = system: MOLT-4
HOP-62 = system: HOP-62
DU-145 = system: DU-145
HCT-116 = system: HCT-116
SF-268 = system: SF-268
Hs-578T = system: Hs-578T
SN12C = system: SN12C
TK-10 = system: TK-10
OVCAR-8 = system: OVCAR-8
UO-31 = system: UO-31
CAKI-1 = system: CAKI-1
K562 = system: K562
SW-620 = system: SW-620
SK-MEL-5 = system: SK-MEL-5
NCI-H23 = system: NCI-H23
EKVX = system: EKVX
HT-29 = system: HT-29
T47D = system: T47D
LOX IMVI = system: LOX IMVI
MDA-N = system: MDA-N
HL-60 = system: HL-60
MDA-MB-435 = system: MDA-MB-435
MCF7 = system: MCF7
NCI-H226 = system: NCI-H226
CCRF-CEM = system: CCRF-CEM
UACC-257 = system: UACC-257
SK-MEL-2 = system: SK-MEL-2
RXF 393 = system: RXF 393
786-0 = system: 786-0
U-251 = system: U-251
M14 = system: M14
KM12 = system: KM12
BT-549 = system: BT-549
SF-295 = system: SF-295
Malme-3M = system: Malme-3M
HCT-15 = system: HCT-15
SNB-19 = system: SNB-19
HCC 2998 = system: HCC 2998
SK-MEL-28 = system: SK-MEL-28
IGROV-1 = system: IGROV-1
NCI-H522 = system: NCI-H522
NCI-H460 = system: NCI-H460
SF-539 = system: SF-539
OVCAR-4 = system: OVCAR-4
A498 = system: A498
SNB-75 = system: SNB-75
A549 = system: A549
HOP-92 = system: HOP-92
OVCAR-3 = system: OVCAR-3
SR = system: SR
PC-3 = system: PC-3
RPMI-8226 = system: RPMI-8226

In the case of `FC(F)(F)c1ccc2nc(Sc3ccccn3)cnc2c1`, the GI50 (UACC-62) is reported as 29.2 µM (inactive), the GI50 (SK-OV-3) is reported as 33.8 µM (inactive) and the GI50 (COLO 205) is reported as 53.2 µM (inactive). The GI50 (MDA-MB-231) was 38.4 µM (inactive), the GI50 (ACHN) was 16.7 µM (inactive) and the GI50 (NCI/ADR-RES) was 37.4 µM (inactive). The GI50 (OVCAR-5) was > 100 µM (inactive), the GI50 (MOLT-4) was 36.8 µM (inactive) and the GI50 (HOP-62) was 35.3 µM (inactive). For the same compound, the GI50 (DU-145) was 46.6 µM (inactive), the GI50 (HCT-116) was 44.3 µM (inactive) and the GI50 (SF-268) was 49.2 µM (inactive). The GI50 (Hs-578T) was 54.7 µM (inactive), the GI50 (SN12C) was 35.5 µM (inactive) and the GI50 (TK-10) was 31 µM (inactive). For the same compound, the GI50 (OVCAR-8) was 38.8 µM (inactive), the GI50 (UO-31) was 22.7 µM (inactive) and the GI50 (CAKI-1) was 62.4 µM (inactive). The GI50 (K562) was 51.4 µM (inactive), the GI50 (SW-620) was 34.4 µM (inactive) and the GI50 (SK-MEL-5) was 20.7 µM (inactive). The GI50 (NCI-H23) was 28.4 µM (inactive), the GI50 (EKVX) was 49.2 µM (inactive) and the GI50 (HT-29) was 51.8 µM (inactive). For the same compound, the GI50 (T47D) was 28 µM (inactive), the GI50 (LOX IMVI) was 40.6 µM (inactive) and the GI50 (MDA-N) was 69.2 µM (inactive). For the same compound, the GI50 (HL-60) was 4.14 µM (inactive), the GI50 (MDA-MB-435) was 58.1 µM (inactive) and the GI50 (MCF7) was 74.8 µM (inactive). The GI50 (NCI-H226) was 26.2 µM (inactive), the GI50 (CCRF-CEM) was 2.94 µM (inactive) and the GI50 (UACC-257) was 79.3 µM (inactive). The GI50 (SK-MEL-2) was 15.9 µM (inactive), the GI50 (RXF 393) was 19.1 µM (inactive) and the GI50 (786-0) was 23.5 µM (inactive). The GI50 (U-251) was 18.8 µM (inactive), the GI50 (M14) was 48 µM (inactive) and the GI50 (KM12) was 88.7 µM (inactive). For the same compound, the GI50 (BT-549) was 29.6 µM (inactive), the GI50 (SF-295) was 60.1 µM (inactive) and the GI50 (Malme-3M) was > 100 µM (inactive). The GI50 (HCT-15) was 50.5 µM, the GI50 (SNB-19) was 24.2 µM (inactive) and the GI50 (HCC 2998) was 17.1 µM (inactive). The GI50 (SK-MEL-28) was > 100 µM (inactive), the GI50 (IGROV-1) was 75.5 µM (inactive) and the GI50 (NCI-H522) was 21.7 µM (inactive). The GI50 (NCI-H460) was 48.4 µM (inactive), the GI50 (SF-539) was 16.7 µM (inactive) and the GI50 (OVCAR-4) was 79.8 µM (inactive). The GI50 (A498) was 19.7 µM (inactive), the GI50 (SNB-75) was 29.5 µM (inactive) and the GI50 (A549) was 38.8 µM (inactive). For the same compound, the GI50 (HOP-92) was 89.1 µM (inactive).
With `Cc1cn(C2CC(OC(=O)c3ccc(Cl)cc3)C(COC(=O)c3ccc(Cl)cc3)O2)c(=O)[nH]c1=O` (centres undefined) the GI50 (OVCAR-3) was > 100 µM (inactive), the GI50 (UACC-62) was > 100 µM (inactive) and the GI50 (SK-OV-3) was > 100 µM (inactive). The GI50 (COLO 205) was > 100 µM (inactive), the GI50 (ACHN) was > 100 µM (inactive) and the GI50 (NCI/ADR-RES) was > 100 µM (inactive). For the same compound, the GI50 (OVCAR-5) was > 100 µM (inactive), the GI50 (MOLT-4) was > 100 µM (inactive) and the GI50 (HOP-62) was > 100 µM (inactive). The GI50 (DU-145) was > 100 µM (inactive), the GI50 (HCT-116) was > 100 µM (inactive) and the GI50 (SF-268) was > 100 µM (inactive). The GI50 (Hs-578T) was > 100 µM (inactive), the GI50 (SN12C) was > 100 µM (inactive) and the GI50 (TK-10) was > 100 µM (inactive). For the same compound, the GI50 (OVCAR-8) was > 100 µM (inactive), the GI50 (UO-31) was > 100 µM (inactive) and the GI50 (CAKI-1) was > 100 µM (inactive). The GI50 (K562) was > 100 µM (inactive), the GI50 (SW-620) was > 100 µM (inactive) and the GI50 (SK-MEL-5) was > 100 µM (inactive). The GI50 (NCI-H23) was > 100 µM (inactive), the GI50 (EKVX) was > 100 µM (inactive) and the GI50 (HT-29) was > 100 µM (inactive). The GI50 (T47D) was > 100 µM (inactive), the GI50 (LOX IMVI) was > 100 µM (inactive) and the GI50 (MDA-N) was > 100 µM (inactive). The GI50 (HL-60) was > 100 µM (inactive), the GI50 (MDA-MB-435) was > 100 µM (inactive) and the GI50 (MCF7) was > 100 µM (inactive). The GI50 (NCI-H226) was > 100 µM (inactive), the GI50 (CCRF-CEM) was > 100 µM (inactive) and the GI50 (UACC-257) was > 100 µM (inactive). For the same compound, the GI50 (SK-MEL-2) was > 100 µM (inactive), the GI50 (786-0) was > 100 µM (inactive) and the GI50 (SR) was > 100 µM (inactive). For the same compound, the GI50 (U-251) was > 100 µM (inactive), the GI50 (M14) was > 100 µM (inactive) and the GI50 (KM12) was > 100 µM (inactive). For the same compound, the GI50 (BT-549) was > 100 µM (inactive), the GI50 (SF-295) was > 100 µM (inactive) and the GI50 (Malme-3M) was > 100 µM (inactive). For the same compound, the GI50 (HCT-15) was greater than 100 µM, the GI50 (SNB-19) was > 100 µM (inactive) and the GI50 (PC-3) was > 100 µM (inactive). For the same compound, the GI50 (SK-MEL-28) was > 100 µM (inactive), the GI50 (IGROV-1) was > 100 µM (inactive) and the GI50 (RPMI-8226) was > 100 µM (inactive). For the same compound, the GI50 (NCI-H522) was > 100 µM (inactive), the GI50 (NCI-H460) was > 100 µM (inactive) and the GI50 (OVCAR-4) was > 100 µM (inactive). For the same compound, the GI50 (SNB-75) was > 100 µM (inactive), the GI50 (A549) was > 100 µM (inactive) and the GI50 (HOP-92) was > 100 µM (inactive).

From ChEMBL document CHEMBL1201862, “PubChem BioAssay data set” (2004)
